{
  "source": "patent US10952992B2",
  "about": "“Methods of treating intraocular pressure with activators of Tie-2” (Aerpio Pharmaceuticals, Inc., priority 2015, dated 2021)",
  "test_system": "intraocular pressure, study eye/fellow eye",
  "test": "Intraocular pressure with Compound 1 + sham, Compound 1 + RBZ or placebo + RBZ, months 1-3 (FIG. 2, TABLE 1)",
  "type": "in vivo, human",
  "description": "The difference in IOP was determined relative to a pre-treatment baseline (Base) at months 1, 2, and 3 (M1-M3). Intraocular pressure was determined in the study eye in millimeters of mercury (mmHg). […] The difference in IOP was determined relative to a pre-treatment Baseline at Months 1, 2, and 3. Intraocular pressure was determined in the study eye/fellow eye in mmHg.",
  "data": [
    {"substance": "placebo + RBZ: a placebo combined with RBZ (ranibizumab)", "values": [
      {"measurement": "IOP, fellow eye", "setting": "Baseline (pre-treatment)", "result": 15.8, "unit": "mmHg"},
      {"measurement": "IOP, study eye", "setting": "Baseline (pre-treatment)", "result": 15.2, "unit": "mmHg"},
      {"measurement": "IOP, fellow eye", "setting": "Month 1", "result": 15.5, "unit": "mmHg"},
      {"measurement": "IOP, study eye", "setting": "Month 1", "result": 15.0, "unit": "mmHg"},
      {"measurement": "IOP, fellow eye", "setting": "Month 2", "result": 15.5, "unit": "mmHg"},
      {"measurement": "IOP, study eye", "setting": "Month 2", "result": 15.0, "unit": "mmHg"},
      {"measurement": "IOP, fellow eye", "setting": "Month 3", "result": 15.7, "unit": "mmHg"},
      {"measurement": "IOP, study eye", "setting": "Month 3", "result": 15.3, "unit": "mmHg"}
    ]}
  ]
}
